Experiments:
[1] = test system: thrombus formation in the arteria testicularis; experiment: Thrombus formation inhibition, combined use with cilostazol (FeCl3-induced thrombus, Test Example 3); type: in vivo; settings: male ICR mice, control 12±3 minutes, P<0.05 vs. cont.
Protocol: Male ICR mice (ten weeks old) were used. Rhodamine 6G (platelet fluorescence-labeling agent) was administered to the tail vein under anesthesia. With the abdomen open, the arteria testicularis was subjected to FeCl3 treatment to induce thrombus formation. Thrombus formation was observed by a real time color three-dimensional observation device, and thrombus formation time was measured. Suplatast tosilate (IPD) (10 mg/kg) was dissolved in water and orally administered for 7 days before amputating the tail to the group that was given IPD alone. Cilostazol (10 mg/kg, 30 mg/kg, 100 mg/kg), a platelet aggregation inhibitor, was dissolved in water and orally administered in a single dose one hour before amputating the tail to the group that was given cilostazol alone. To the combination group of IPD and cilostazol, IPD (10 mg/kg) was orally administered for 7 days, and cilostazol (10 mg/kg) was orally administered in a single dose one hour before amputating the tail on the 7th day of the IPD administration.

[2] = test system: thrombus formation in the arteria testicularis; experiment: Thrombus formation inhibitory action (FeCl3-induced thrombus, Test Example 1); type: in vivo; settings: male ICR mice; for large thrombus formation time: control about 14 minutes
Protocol: Male ICR mice (ten weeks old) were used. Rhodamine 6G (platelet fluorescence-labeling agent) was administered to the tail vein under anesthesia. With the abdomen open, the arteria testicularis was subjected to FeCl3 treatment to induce thrombus formation. Thrombus formation was observed by a real time color three-dimensional observation device, and the thrombus formation time was measured. Suplatast tosilate (IPD), the compound of the present invention, was dissolved in water and orally administered in a single dose (100 mg/kg) 30 minutes before the FeCl3 treatment or for 7 consecutive days (100 mg/kg, 30 mg/kg, 10 mg/kg) before the FeCl3 treatment. In addition, as a control drug, tirofiban (0.3 μmol/kg) was intravenously administered.

[3] = Amount of bleeding after tail amputation (side effect, Test Example 2); type: in vivo, mice
Protocol: Male ICR mice (ten weeks old) were used. The last 2 mm of the tail was amputated with a scalpel under pentobarbital anesthesia, and the tail 2 cm from the tip was immediately immersed in 10 mL of physiological saline at 37° C. Twenty minutes later, the tail was removed from the physiological saline, and 1 mL of Triton X-100 (25% in water) was added. The absorbance at 546 nm was measured, and the amount of bleeding was determined from a calibration curve. Suplatast tosilate (IPD, 100 mg/kg), the compound of the present invention, and a control drug, warfarin (10 mg/kg) were dissolved in distilled water and orally administered in a single dose one hour before amputating the tail, or orally administered for 7 consecutive days before amputating the tail. Distilled water was administered to the control.

CCOCC(O)COc1ccc(NC(=O)CC[S+](C)C)cc1.Cc1ccc(S(=O)(=O)[O-])cc1 (racemic) [IPD, (±)-[2-[4-(3-ethoxy-2-hydroxypropoxy)phenylcarbamoyl]ethyl]dimethylsulfonium p-toluenesulfonate]
thrombus formation time ([1]; IPD alone 10 mg/kg orally for 7 days): 36 ± 11 min
large thrombus formation time ([2]; 100 mg/kg orally, single dose 30 minutes before FeCl3 treatment): 45 min
large thrombus formation inhibitory action ([2]; oral administration for 7 consecutive days (100, 30, 10 mg/kg) vs single dose): clearly enhanced
amount of bleeding ([3]; mouse, in vivo, po, 100 mg/kg): did not have a significant effect on the amount of bleeding

O=C1CCc2cc(OCCCCc3nnnn3C3CCCCC3)ccc2N1 [cilostazol]
thrombus formation time ([1]; cilostazol alone, oral single dose (10, 30, 100 mg/kg tested; dose of this value not stated)): 25 ± 5 min

CCCCS(=O)(=O)N[C@@H](Cc1ccc(OCCCCC2CCNCC2)cc1)C(=O)O [tirofiban]
large thrombus formation time ([2]; 0.3 μmol/kg intravenously, after FeCl3 stimulation): 60 min

CC(=O)CC(c1ccccc1)c1c(O)c2ccccc2oc1=O (centres unmarked) [warfarin]
amount of bleeding ([3]; male ICR mice, 10 mg/kg orally for 7 consecutive days before amputating the tail): notable effect of increasing the amount of bleeding
amount of bleeding ([3]; male ICR mice, 10 mg/kg orally, single dose one hour before amputating the tail): notable effect of increasing the amount of bleeding
